These molecules were tested on Botrytis cinerea (assay: Activity against gray mold on bell-pepper leaves caused by Botrytis cinerea, protective application). Details: 250 ppm, protective spray on bell-pepper seedlings cv. Neusiedler Ideal Elite, inoculated next day, assessed visually after 5 days; untreated plants 90% infected.
Type: in vivo
Experimental: The active compounds were prepared as a stock solution with 25 mg of active compound which was made up to 10 ml using a mixture of acetone and/or DMSO and the emulsifier Uniperol® EL (wetting agent having emulsifying and dispersing action based on ethoxylated alkylphenols) in a volume ratio of solvent/emulsifier of 99 to 1. The mixture was then made up with water to 100 ml. This stock solution was diluted with the solvent/emulsifier/water mixture described to the concentration of active compound stated below. Bell-pepper seedlings of the cultivar “Neusiedler Ideal Elite” were, after 2 to 3 leaves were well developed, sprayed to runoff point with an aqueous suspension having the concentration of active compound stated below. The next day, the treated plants inoculated with a spore suspension of Botrytis cinerea, which contained 1.7×10^6 spores/ml in a 2% aqueous biomalt solution. The test plants were then placed in a dark climatized chamber at 22 to 24° C. and high atmospheric humidity. After 5 days, the extent of the fungal infection on the leaves could be determined visually in %.

Compound	fungal infection on the leaves
CC1CCCCN1c1c(-c2c(F)ccc(F)c2F)c(C#N)nc2ncnn12 (stereo not drawn) [I-1, 5-cyano-6-(2,3,6-trifluorophenyl)-7-(2-methylpiperidinyl)-1,2,4-triazolo[1,5a]pyrimidine]	no infection
COc1nc2ncnn2c(NC2CCCC2)c1-c1c(F)ccc(F)c1F [I-2, 5-methoxy-6-(2,3,6-trifluorophenyl)-7-cyclopentylamino-1,2,4-triazolo[1,5a]pyrimidine]	no infection
Cc1nc2ncnn2c(N2CCCCC2C)c1-c1c(F)ccc(F)c1F (stereo not drawn) [I-3, 5-methyl-6-(2,3,6-trifluorophenyl)-7-(2-methylpiperidinyl)-1,2,4-triazolo[1,5a]pyrimidine]	no infection

From patent publication US20070149588A1, “6-(2,3,6-Trifluorophenyl)triazolopyrimidines, their preparation and their use for controlling harmful fungi, and compositions comprising these compounds” (priority 2003, published 2007)
